According to patent US20050260126A1 (priority 2002, published 2005):

Legend:
[1] = tested on: abnormal prion proteins in ScN2a cells with persistent infection of scrapie; assay: cells; assay type: cell-based, mouse; conditions: for IC50: Mus musculus, ScN2a, 96 h, read-out: Inhibitory effects on producing abnormal prion protein IC50; for Inhibitory effects on producing abnormal prion proteins (in words): ScN2a cells
[2] = Slc:ICR, mouse, not told, iv
ScN2a cells = conditions: for Concentration of inhibiting cell proliferation TC: mouse
in vivo = conditions: male, Crj:CD1, mouse, iv

Compound | IC50 [1] | Permeability into the brain: content in Brain [2] | Permeability into the brain: content in Plasma [2] | Concentration of inhibiting cell proliferation TC (ScN2a cells) | MTD (in vivo) | Inhibitory effects on producing abnormal prion proteins (in words) [1] | TC and safety concentration margin (in words) (ScN2a cells)
Clc1ccc(/C=C/c2nc3ccccc3o2)cc1 [BF-191, 2-[2-(4-chlorophenyl)ethenyl]benzoxazole] | 0.004 µM | 12.0 % ID/g or ml | 2.1 % ID/g or ml | >10 µM |  |  | 
CN(C)c1ccc(/C=C/c2nc3ccccc3o2)c(O)c1 [BF-206, 2-(4-dimethylamino-2-hydroxystyryl)-benzoxazole] | 0.002 µM |  |  | >10 µM | ≥ 10 mg/kg |  | 
Cc1nc(/C=C/C=C/c2ccc(N(C)C)cc2)oc1C [BF-228, 2-[[4-(4-dimethylamino)-phenyl]-1,3-butadienyl]-3,4-dimethyloazole] | 0.016 µM |  |  | >10 µM | ≥ 10 mg/kg |  | 
CN(C)c1ncc(-c2nc3ccccc3o2)s1 [BF-225, 2-(2-dimethylamino-thiazol-5-yl)benzoxazole] |  |  |  |  | ≥ 10 mg/kg |  | 
CN(C)c1ccc(/C=C/c2cccs2)cc1 [BF-141, 2-[2-(4-dimethylamino-phenyl)ethenyl]thiophene] | 0.001 µM |  |  | 10 µM | 3 to 10 mg/kg | highly inhibitory effects | 
Nc1ccc(-c2ccc3ccccc3n2)cc1 [BF-170, 2-[(4-amino)phenyl]-quinoline] | 0.1 µM | 9.1 % ID/g or ml | 1.4 % ID/g or ml | 100 µM |  |  | 
CN(C)c1ccc2cc(-c3nc4cc(F)ccc4[nH]3)ccc2c1 [BF-153, 5-fluoro-2-(6-dimethyl-aminonaphthalen-2-yl)benzimidazole] | 0.001 µM |  |  | 10 µM | 3 to 10 mg/kg | highly inhibitory effects | 
CC1=NN(c2ccc(/C=C/c3nc4ccccc4o3)cc2)C(=O)C1 [BF-181, 2-[2-[4-(3-methyl-5-oxo-2-pyrrozolin-1-yl)-phenyl]ethenyl]benzoxazole] |  |  |  |  | 3 to 10 mg/kg |  | 
CNc1ccc(/C=C/c2nc3ccccc3o2)c(N)c1 [BF-207, 2-(2-amino-4-N-methyl-aminostyryl)benzoxazole] |  |  |  |  | ≥ 10 mg/kg |  | 
CN(C)c1ccc(-c2cn3cc(I)ccc3n2)cc1 [BF-130, 2-(4-dimethylamino) phenyl-6-iodoimidazo-[1,2-a]pyridine] | 0.001 µM | 7.3 % ID/g or ml | 2.4 % ID/g or ml | 100 µM |  | highly inhibitory effects | higher TCs, therefore higher safety concentration margins
Cc1nc(/C=C/c2ccc(N(C)C)cc2O)oc1COCCF [BF-210] |  |  |  |  | ≥ 10 mg/kg |  | 
Nc1ccc(-c2nc3ccc(N)cc3[nH]2)cc1 [Compound N-245, 2-(4-aminophenyl)-5-aminobenzimidazole] | 0.1 µM |  |  | 10 µM |  |  | 
CN(C)c1ncc(/C=C/c2nc3ccccc3s2)s1 [BF-196, 2-[2-(2-dimethylamino-thiazol-5-yl)ethenyl]-benzothiazole] | 0.016 µM | 19 % ID/g or ml | 1.8 % ID/g or ml | >10 µM |  |  | 
Nc1ccc(-c2nc3cc(N)ccc3s2)cc1 [Compound N-231, 2-(4-aminophenyl)-5-aminobenzothiazole] | 0.01 µM |  |  | 10 µM |  |  | 
Nc1ccc(-c2nc3cc(N)ccc3o2)cc1 [Compound N-225, 2-(4-aminophenyl)-5-aminobenzoxazole] | 0.1 µM |  |  | >10 µM |  |  | 
Nc1ccc(-c2nc3cc(Cc4ccc5oc(-c6ccc(N)cc6)nc5c4)ccc3o2)cc1 [Compound N-221] | 0.001 µM |  |  | >10 µM |  | highly inhibitory effects | 
Nc1ccc(C(=O)Nc2ccc3nc(-c4cc(Cl)c(NC(=O)c5ccc(N)cc5)c(Cl)c4)[nH]c3c2Cl)cc1 [Compound N-233, 4-[6-(N′-(4-amino-benzoyl)amino)-7-chlorobenzimidazol-2-yl]-N-(4-aminobenzoyl)-2,6-dichloroaniline] | 0.1 µM |  |  | 10 µM |  |  | 
CN(C)c1ncc(/C=C/c2nc3ccccc3o2)o1 [BF-230, 2-[2-(2-dimethylamino-oxazol-5yl)-ethenyl]benzoxazole] |  |  |  |  | ≥ 10 mg/kg |  | 
CN(C)c1ccc(/C=C/c2nc3ccc4ccccc4c3s2)cc1 [Compound N-283, 4-[2-(naphth[4,5-c]-thiazol-2-yl)ethenyl]-N,N-dimethylbenzenamine] | 0.5 µM |  |  | 50 µM |  |  | 
Cc1cc2[nH]c(-c3ccc(N)cc3)nc2cc1N [Compound N-242, 2-(4-aminophenyl)-5-amino-6-methyl-benzimidazole] | 0.1 µM |  |  | 10 µM |  |  | 
Nc1ccc(-c2nc3ccc(N)cc3s2)cc1 [Compound N-224, 2-(4-aminophenyl)-6-aminobenzothiazole] | 0.001 µM |  |  | >10 µM |  | highly inhibitory effects | 
Cc1nc(/C=C/c2ccc(N(C)C)cc2O)oc1CO [BF-200, 2-[2-[(4-dimethylamino-2-hydroxy)phenyl]-ethenyl]-5-hydroxy methyl-4-methyloxazole] |  |  |  |  | ≥ 10 mg/kg |  | 
Ic1ccc2nc(-c3ccccc3)cn2c1 [Compound N-469, 2-phenyl-6-iodo-imidazo[1,2-a]pyridine] | 0.1 µM |  |  | ≧100 μM |  |  | 
CNc1ccc(-c2ccc3ccccc3n2)cc1 [BF-158, 2-[(4-methylamino)-phenyl]quinoline] | 0.01 µM | 9.7 % ID/g or ml | 1.8 % ID/g or ml | 100 µM |  |  | 
CN(C)c1ccc(-c2nc3ccccc3s2)cc1 [BF-150, 2-(4-dimethylamino-phenyl) benzothiazole] | 0.001 µM | 11.2 % ID/g or ml | 1.5 % ID/g or ml | 10 µM |  | highly inhibitory effects | 
Clc1ccc2nc(-c3ccccc3)c(Br)n2c1 [Compound N-468, 2-phenyl-3-bromo-6-chloroimidazo[1,2-a]pyridine] | 1 µM |  |  | 100 µM |  |  | 
Clc1ccc2nc(-c3cccs3)cn2c1 [Compound N-471, 2-(2-thienyl)-6-chloro imidazo[1,2-a]pyridine] | 1 µM |  |  | ≧100 μM |  |  | 
Nc1ccc(C(=O)Nc2ccc(-c3nc4cc(N)ccc4o3)cc2)cc1 [Compound N-220, 4-(5-aminobenzoxazol-2-yl)-N-(4-amino-benzoyl)aniline] | 0.001 µM |  |  | 10 µM |  | highly inhibitory effects | 
Nc1ccc(-c2nc3ccc(N)cc3o2)cc1 [Compound N-226, 2-(4-aminophenyl)-6-aminobenzoxazole] | 0.1 µM |  |  | >10 µM |  |  | 
